Consider 60 compounds from the Bradley open melting point set (2014).

Where “and” joins values, the source holds several entries; their conditions need not be identical. Identical values can stand only once.

A word on the melting point: it is the temperature of the solid-liquid transition. `Nc1ccc([N+](=O)[O-])cc1` [4-Nitroaniline] displayed a melting point of 148 °C.

In turn, `O=C(c1ccccc1)c1ccc(C(F)(F)F)cc1` [FXFFR DVR] came in with a melting point of 116 °C.

In the case of `OB(O)c1cc2ccccc2nc1Br` [2-bromoquinoline-3-boronic acid], the melting point came to 146 °C.

As for `Nc1cc(F)c(F)cc1C(=O)O` [2-amino-4,5-difluorobenzoic acid], the melting point amounted to 182 °C.

Compound `COC(=O)C(C#N)c1ccccc1[N+](=O)[O-]` (stereo not given) [methyl cyano(2-nitrophenyl)acetate] had a melting point of 88 °C.

Regarding `O=C(CCCN1CCC(O)(c2ccc(Cl)cc2)CC1)c1ccc(F)cc1` [haloperidol], the melting point was 152 °C.

With `c1ccc(C2CCCCC2)cc1` [Cyclohexylbenzene], the melting point is 5 °C.

`CC(C)CCC[C@@H](C)[C@H]1CC[C@H]2[C@@H]3CC[C@H]4CC(=O)CC[C@]4(C)[C@H]3CC[C@]12C` [5alpha-cholestan-3-one] yielded a melting point of 130 °C.

Consider `CCCCCCOC(C)=O` [N-hexyl acetate], for which the melting point is -80 °C.

In turn, `COc1cccc(F)c1B(O)O` [2-fluoro-6-methoxybenzeneboronic acid] registered a melting point of 125 °C.

The compound `O=C(O)c1ccc(O)c([N+](=O)[O-])c1` [4-hydroxy-3-nitrobenzoic acid] registered a melting point of 183 °C.

Regarding `O=C(CO)[C@@]3(O)CC[C@H]2[C@@H]4CC\C1=C\C(=O)CC[C@]1(C)[C@H]4C(=O)C[C@@]23C` [cortisone], the melting point is 222 °C and 226 °C (2×).

For `CC(Br)C(C)(Br)Br` (stereo not given) [2,3,3-tribromobutane], the melting point worked out at 2 °C.

With `[O-][I+3]([O-])([O-])O` [Periodic acid], the melting point was found to be 122 °C.

In the case of `COc1ccc(CCN)cc1OC` [2-(3,4-dimethoxyphenyl)ethylamine], the melting point amounted to 11 °C.

On to `CC(C)(C)N` [2-amino-2-methylpropane], for which the melting point is -68 °C.

With `CCCC(C)Cl` (stereo not given) [2-chloropentane], the melting point is -137 °C.

`C#CC1(O)CCC2C3CCc4cc(O)ccc4C3CCC21C` (stereo not given) [ethinylestradiol] yielded a melting point of 141 °C.

As to `C=C(C)C(=O)OC` [Methyl methacrylate], the melting point is -48 °C.

On to `Cc1ccc(/C=C(\Oc2ccccc2)c2nc3ccccc3s2)cc1`, for which the melting point worked out at 163 °C.

With `COc1ccc(CC#N)c(Cl)c1` [2-chloro-4-methoxyphenylacetonitrile], the melting point came out at 42 °C.

In turn, `Cc1ccc(B(O)O)cc1F` [3-fluoro-4-methylbenzeneboronic acid] registered a melting point of 234 °C.

With `C#CC(C)(O)c1ccccc1` (stereo not given) [2-phenyl-3-butyn-2-ol], the melting point worked out at 49 °C.

For the compound `C#CCN1C(=O)c2ccccc2C1=O` [N-propargylphthalimide], the melting point is 150 °C.

With `CC(=O)CC(C)=O` [Pentane-2,4-dione], the melting point was -23 °C.

The compound `O=[N+]([O-])c1ccc(O)c2ccccc12` [4-nitro-1-naphthol] registered a melting point of 166 °C.

Compound `O=C1c2ccccc2C(=O)N1OCCCCBr` [N-(4-bromobutoxy)phthalimide] registered a melting point of 71 °C.

In turn, `COc1cc(C(C)=O)ccc1F` [4'-fluoro-3'-methoxyacetophenone] yielded a melting point of 52 °C.

`COc1ccccc1N1CCN(CCCC(=O)c2ccc(F)cc2)CC1` [4-[4-(o-Methoxyphenyl)-1-piperazinyl]-p-fluorobutyrophenone] showed a melting point of 68 °C.

`N#CCc1ccc2ccccc2c1` [2-naphthylacetonitrile] had a melting point of 83 °C.

`O=[N+]([O-])c1ccc(Nc2ccccc2)c([N+](=O)[O-])c1` [2,4-Dinitro-N-phenylaniline]: the melting point was determined as 160 °C.

`c1cc2ccc3cccc4ccc(c1)c2c34` [pyrene] showed a melting point of 156 °C.

Compound `C[Si](C)(C)N=C=S` [trimethylsilyl isothiocyanate] displayed a melting point of -33 °C.

`CC1(C)[C@@H]2CC[C@@]1(C)C(=O)C2` [(1R)-camphor] yielded a melting point of 178 °C.

On to `COC(=O)c1ccc(C)cc1` [methyl_4-methylbenzoate], for which the melting point worked out at 37 °C.

On to `CCCCCCO` [Hexan-1-ol], for which the melting point is -52 °C.

The compound `O=C(O)c1ccccc1C(=O)O` [phthalic acid] showed a melting point of 230 °C.

For the compound `COc1cc(/C=C/C(=O)c2ccccc2O)ccc1O` [2',4-dihydroxy-3-methoxychalcone], the melting point was found to be 128 °C.

For `CCOC(=O)c1sc2sc(C(=O)OCC)c(C)c2c1C` [diethyl 3,4-dimethylthieno[2,3-b]thiophene-2,5-dicarboxylate], the melting point was determined as 140 °C.

For `O=Cc1ccc(-c2ccccc2)cc1` [p-phenylbenzaldehyde], the melting point was 60 °C.

Compound `O=c1c2ccccc2sc2ccccc12` [9H-Thioxanthen-9-one] gave a melting point of 209 °C.

Consider `O=C1COc2cccnc2N1` [2h-pyrido[3,2-b]-1,4-oxazin-3(4h)-one], for which the melting point was 206 °C.

In the case of `c1cc2ccc3ccc4ccc5ccc6ccc1c1c2c3c4c5c61` [Coronene], the melting point is 438 °C.

Consider `c1ccc(P(c2ccccc2)c2ccccc2)cc1` [Triphenylphosphine], for which the melting point came to 80.5 °C.

On to `N#Cc1ccc2c(c1)N(CCCN1CCC(O)CC1)c1ccccc1S2` [Propericiazine], for which the melting point was 116 °C.

Take `Clc1ncnc2sc3c(c12)CCC3`: the melting point came out at 105 °C.

The compound `C1=CC2=NC3=C(CCCC3)C2=CC1` [1,2,3,4-TETRAHYDROCARBAZOLE] gave a melting point of 118 °C.

`CCCCCCCCCCCCCCCCCC(=O)OCC` [ethyl stearate] had a melting point of 35 °C.

`N#CCC(=O)c1ccccc1Cl` [2-chlorobenzoylacetonitrile] registered a melting point of 56 °C.

Compound `CN1C(=O)CCC(N2C(=O)c3ccccc3C2=O)C1=O` (stereo not given) [N-Methylthalidomide] gave a melting point of 159 °C.

The compound `C#C[C@]1(O)CC[C@H]2[C@@H]3CCC4=CC(=O)CC[C@@H]4[C@H]3CC[C@@]21C` [norethindrone] yielded a melting point of 204 °C.

`OB(O)c1cccc(Cl)c1` [3-chlorobenzeneboronic acid] showed a melting point of 183 °C.

As to `COc1cc(C=O)cc(OC)c1` [3,5-dimethoxybenzaldehyde], the melting point stood at 47 °C.

On to `O=C(c1ccncc1)c1ccc(Cl)cc1` [4-(4-chlorobenzoyl)pyridine], for which the melting point was determined as 108 °C.

Take `CC(=O)Oc1ccccc1C(=O)O` [2-Acetoxybenzoic acid]: the melting point was 139 °C.

As to `O=C1OC(=O)[C@H]2[C@@H]1[C@@H]1C=C[C@H]2O1` [exo-7-oxabicyclo[2.2.1]hept-5-ene-2,3-dicarboxylic anhydride], the melting point was found to be 119 °C.

As for `COc1cccc(/C=C/[N+](=O)[O-])c1OC` [2,3-dimethoxy-beta-nitrostyrene], the melting point worked out at 81 °C.

In the case of `O=[N+]([O-])c1ccc(CBr)cc1` [4-nitrobenzyl bromide], the melting point was found to be 99 °C.

For the compound `CC(=O)Cl` [acetyl chloride], the melting point was -112 °C.

As for `COc1ccc([C@@H]2CC(=O)c3c(O)cc(O)cc3O2)cc1O` [3',5,7-trihydroxy-4'-methoxyflavanone], the melting point amounted to 230 °C.
